Source: ChEMBL document CHEMBL1156558, “Improvement of the transactivation activity of phenylpropanoic acid-type peroxisome proliferator-activated receptor pan agonists: effect of introduction of fluorine at the linker part” (Bioorg Med Chem Lett, 2008)

Legend:
Assay type in all cases: functional, cell-based
[1] = target: T1, Peroxisome proliferator-activated receptor alpha (Homo sapiens, UniProt Q07869); experiment: Agonist activity at PPARalpha transfected in HEK293 cells by GAL4 transactivation assay
T1 sequence (Q07869 whole entry): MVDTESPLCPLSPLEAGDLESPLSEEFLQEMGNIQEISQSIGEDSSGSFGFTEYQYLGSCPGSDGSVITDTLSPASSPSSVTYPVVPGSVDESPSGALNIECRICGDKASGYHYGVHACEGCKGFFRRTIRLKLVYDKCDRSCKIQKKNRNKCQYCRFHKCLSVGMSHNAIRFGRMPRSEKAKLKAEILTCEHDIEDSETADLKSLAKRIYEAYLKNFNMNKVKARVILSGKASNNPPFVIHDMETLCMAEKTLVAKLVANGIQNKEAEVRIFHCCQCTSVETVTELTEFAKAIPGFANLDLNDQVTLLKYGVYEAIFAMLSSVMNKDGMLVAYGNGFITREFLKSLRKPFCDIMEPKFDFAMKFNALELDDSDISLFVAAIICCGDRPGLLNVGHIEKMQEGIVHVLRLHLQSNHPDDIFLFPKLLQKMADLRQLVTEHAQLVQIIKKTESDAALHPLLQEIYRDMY

[2] = target: T2, Peroxisome proliferator-activated receptor delta (Homo sapiens, UniProt Q03181); experiment: Agonist activity at PPARdelta transfected in HEK293 cells by GAL4 transactivation assay
T2 sequence (Q03181 whole entry): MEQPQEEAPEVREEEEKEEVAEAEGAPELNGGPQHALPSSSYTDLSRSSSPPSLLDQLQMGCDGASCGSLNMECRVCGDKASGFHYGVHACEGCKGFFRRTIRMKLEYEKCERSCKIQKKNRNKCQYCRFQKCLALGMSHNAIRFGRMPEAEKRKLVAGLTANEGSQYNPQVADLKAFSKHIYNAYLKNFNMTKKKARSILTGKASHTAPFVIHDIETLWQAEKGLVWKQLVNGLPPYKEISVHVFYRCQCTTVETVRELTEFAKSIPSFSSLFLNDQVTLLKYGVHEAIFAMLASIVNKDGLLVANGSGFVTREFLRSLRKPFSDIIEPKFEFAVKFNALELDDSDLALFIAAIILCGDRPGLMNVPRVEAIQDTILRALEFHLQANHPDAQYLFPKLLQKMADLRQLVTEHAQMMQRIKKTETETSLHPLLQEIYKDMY

[3] = target: T3, Peroxisome proliferator-activated receptor gamma (Homo sapiens, UniProt P37231); experiment: Agonist activity at PPARgamma transfected in HEK293 cells by GAL4 transactivation assay
T3 sequence (P37231 whole entry): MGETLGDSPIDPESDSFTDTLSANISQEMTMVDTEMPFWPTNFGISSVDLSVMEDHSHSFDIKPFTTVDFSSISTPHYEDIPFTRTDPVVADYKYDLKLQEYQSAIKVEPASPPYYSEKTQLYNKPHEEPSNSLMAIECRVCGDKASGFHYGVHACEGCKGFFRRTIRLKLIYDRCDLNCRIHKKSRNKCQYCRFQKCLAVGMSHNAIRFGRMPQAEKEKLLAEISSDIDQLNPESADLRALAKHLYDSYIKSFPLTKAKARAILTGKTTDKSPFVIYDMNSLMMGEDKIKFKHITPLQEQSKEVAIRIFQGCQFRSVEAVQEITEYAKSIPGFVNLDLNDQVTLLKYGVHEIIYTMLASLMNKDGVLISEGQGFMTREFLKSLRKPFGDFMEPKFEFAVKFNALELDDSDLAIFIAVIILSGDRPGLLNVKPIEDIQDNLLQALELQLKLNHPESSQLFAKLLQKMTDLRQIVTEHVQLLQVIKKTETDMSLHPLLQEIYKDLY

SMILES	EC50 [1]	EC50 [2]	EC50 [3]
CCC(Cc1cc(F)c(OC)c(CNC(=O)c2ccc(C34CC5CC(CC(C5)C3)C4)cc2)c1)C(=O)O (racemic)	260 nM	2200 nM	190 nM
CCCOc1cc(F)c(CC(CC)C(=O)O)cc1CNC(=O)c1ccc(C23CC4CC(CC(C4)C2)C3)cc1 (racemic)	17 nM	60 nM	15 nM
CCCOc1cc(F)c(CC(CC)C(=O)O)cc1CNC(=O)c1ccc(C23CC4CC(CC(C4)C2)C3)cc1F (racemic)	13 nM	28 nM	35 nM
CCCOc1ccc(C[C@H](CC)C(=O)O)cc1CNC(=O)c1ccc(C23CC4CC(CC(C4)C2)C3)cc1	58 nM		
CCC(Cc1ccc(OC)c(CNC(=O)c2ccc(C34CC5CC(CC(C5)C3)C4)cc2F)c1)C(=O)O (racemic)	60 nM	550 nM	140 nM
CCC(Cc1cc(CNC(=O)c2ccc(C34CC5CC(CC(C5)C3)C4)cc2)c(OC)cc1F)C(=O)O (racemic)	13 nM	280 nM	36 nM
CCCOc1cc(F)c(C[C@@H](CC)C(=O)O)cc1CNC(=O)c1ccc(C23CC4CC(CC(C4)C2)C3)cc1F	200 nM	180 nM	160 nM
CCC(Cc1cc(F)c(OC)c(CNC(=O)c2ccc(C(F)(F)F)cc2)c1)C(=O)O (racemic)	54 nM	59 nM	> 10000 nM
CCC(Cc1ccc(OC)c(CNC(=O)c2ccc(C34CC5CC(CC(C5)C3)C4)cc2)c1)C(=O)O (racemic)	53 nM	940 nM	110 nM

The next molecules have a lower EC50 [1] than those just listed; values first:

EC50 [1]	EC50 [2]	EC50 [3]	SMILES
7.1 nM	94 nM	24 nM	CCOc1cc(F)c(CC(CC)C(=O)O)cc1CNC(=O)c1ccc(C23CC4CC(CC(C4)C2)C3)cc1 (racemic)
3.6 nM	20 nM	1100 nM	CCC(Cc1cc(CNC(=O)c2ccc(C(F)(F)F)cc2)c(OC)cc1F)C(=O)O (racemic)
7.9 nM	29 nM	2600 nM	CCC(Cc1ccc(OC)c(CNC(=O)c2ccc(C(F)(F)F)cc2F)c1)C(=O)O (racemic)
7.5 nM	55 nM	22 nM	CCOc1cc(F)c(CC(CC)C(=O)O)cc1CNC(=O)c1ccc(C23CC4CC(CC(C4)C2)C3)cc1F (racemic)
12 nM	25 nM	38 nM	CCCOc1cc(F)c(C[C@H](CC)C(=O)O)cc1CNC(=O)c1ccc(C23CC4CC(CC(C4)C2)C3)cc1F
